The results in this text go back to US11267824B2, “Inhibitors of indoleamine 2,3-dioxygenase and/or tryptophan 2,3-dioxygenase” (IDORSIA PHARMACEUTICALS LTD, priority 2017, dated 2022).

The target of experiment [1] is Recombinant full-length human IDO1 (Homo sapiens (Human), UniProt P14902). The experiment in a line: IDO1 enzymatic assay (IDO inhibitory activity). Format: biochemical. As to conditions: 2 nM enzyme, 5 μM L-tryptophan, pH6.5, 30 min pre-incubation, NFK quantified by LCMS; mean values if measured multiple times; read-out: hIDO activity (IC50 in nM). The procedure, abridged:
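N-His-tagged enzyme from E. coli at 2 nM in 37.5 mM phosphate pH6.5 with ascorbate, methylene blue, catalase; compounds 10 μM–0.5 nM, 0.6% DMSO, pre-incubated 30 min RT, then 5 μM L-tryptophan for 30 min RT. NFK quantified by LCMS against d5-tryptophan; IC50 from duplicate four-parameter fit, means where repeated.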

Experiment [2] addresses Recombinant human TDO comprising amino acids 19-407 (Homo sapiens (Human), UniProt P48775). The experiment in a line: TDO2 enzymatic assay (TDO inhibitory activity). The class given is biochemical. The note with it: 15 nM enzyme, 200 μM L-tryptophan, pH7, 30 min pre-incubation, NFK quantified by LCMS; mean values if measured multiple times; read-out: hTDO activity (IC50 in nM). The procedure, abridged: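 His-tagged enzyme (15 nM, E. coli-expressed) in pH 7 phosphate buffer with ascorbate, catalase, BSA, Tween 20, 0.6% DMSO; 30 min RT pre-incubation with compound (10 μM–0.5 nM), then 200 μM L-tryptophan for 30 min RT. N′-formylkynurenine quantified by LCMS against deuterated tryptophan; IC50 by four-parameter fit, duplicates.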

Chain of Recombinant full-length human IDO1 (P14902 whole entry): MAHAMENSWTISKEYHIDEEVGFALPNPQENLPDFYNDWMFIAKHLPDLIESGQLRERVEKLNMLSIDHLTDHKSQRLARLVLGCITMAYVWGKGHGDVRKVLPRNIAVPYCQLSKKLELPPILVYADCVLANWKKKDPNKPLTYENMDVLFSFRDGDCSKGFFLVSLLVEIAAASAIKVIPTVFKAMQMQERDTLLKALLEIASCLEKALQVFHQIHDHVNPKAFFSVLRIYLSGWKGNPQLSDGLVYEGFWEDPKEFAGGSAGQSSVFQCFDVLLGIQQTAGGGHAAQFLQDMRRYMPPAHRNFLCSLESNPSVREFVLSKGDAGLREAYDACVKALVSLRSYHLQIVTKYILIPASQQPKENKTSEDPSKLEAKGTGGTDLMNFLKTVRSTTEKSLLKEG
Chain of Recombinant human TDO comprising amino acids 19-407 (P48775 19-406 limits assumed): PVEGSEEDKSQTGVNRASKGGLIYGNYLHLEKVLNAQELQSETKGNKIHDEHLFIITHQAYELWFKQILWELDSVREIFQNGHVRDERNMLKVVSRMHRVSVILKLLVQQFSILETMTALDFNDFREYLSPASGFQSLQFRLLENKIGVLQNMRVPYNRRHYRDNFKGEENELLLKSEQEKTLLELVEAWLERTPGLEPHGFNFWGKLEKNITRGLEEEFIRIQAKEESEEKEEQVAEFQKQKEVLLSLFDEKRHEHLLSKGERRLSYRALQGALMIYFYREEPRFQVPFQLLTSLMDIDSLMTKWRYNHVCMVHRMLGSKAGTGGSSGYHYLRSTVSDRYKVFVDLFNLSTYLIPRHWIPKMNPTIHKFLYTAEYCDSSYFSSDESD

The term IC50 denotes the point on the concentration scale where inhibition reaches its midpoint. As to `OC(c1c(C2CC2)sc2cncn12)C1CCc2ccccc2C1` (centres unmarked) [Example 80, (2-Cyclopropyl-imidazo[5,1-b]thiazol-3-yl)-(1,2,3,4-tetrahydro-naphthalen-2-yl)-methanol], the IC50 came to 34.2 nM in experiment [1] and 1810 nM in experiment [2].

Take `CC1CCCC(CC(O)c2c(C3CC3)sc3cncn23)C1` (centres unmarked) [Example 29, 1-(2-Cyclopropyl-imidazo[5,1-b]thiazol-3-yl)-2-(3-methyl-cyclohexyl)-ethanol]: the IC50 in experiment [1] turned out to be 21.4 nM; in experiment [2] it was 509 nM.

On to `CC(C)(C)c1sc2cncn2c1C(O)C1CCCCC1` (racemic) [Example 11, rac-(2-(tert-Butyl)imidazo[5,1-b]thiazol-3-yl)(cyclohexyl)methanol], for which the results for the half-inhibitory concentration (IC50) in experiment [1] and in experiment [2] were 895 nM and 2050 nM, respectively.

For `OC(Cc1c(Cl)cccc1Cl)c1c(C2CC2)sc2cncn12` (racemic) [Example 60, rac-1-(2-Cyclopropyl-imidazo[5,1-b]thiazol-3-yl)-2-(2,6-dichloro-phenyl)-ethanol], the IC50 in experiment [1] was 287 nM; in experiment [2], 455 nM.

`OC(c1c(-c2ccccc2)sc2cncn12)C1CCCCC1` (racemic) [Example 92, rac-Cyclohexyl-(2-phenyl-imidazo[5,1-b]thiazol-3-yl)-methanol]: the IC50 in experiment [1] worked out at 382 nM; in experiment [2], 246 nM.

For the compound `OC(CC1CCCC(C(F)(F)F)C1)c1c(C2CC2)sc2cncn12` (centres unmarked) [Example 102, 1-(2-Cyclopropyl-imidazo[5,1-b]thiazol-3-yl)-2-(3-trifluoromethyl-cyclohexyl)-ethanol], the IC50 is 87.6 nM in experiment [1] and 818 nM in experiment [2].

On to `CC1(C)CCCC1C(O)c1c(C2CC2)sc2cncn12` (centres unmarked) [Example 84, (2-Cyclopropyl-imidazo[5,1-b]thiazol-3-yl)-(2,2-dimethyl-cyclopentyl)-methanol], for which the values for the IC50 in experiment [1] and in experiment [2] were 74 nM and 133 nM, respectively.

As to `OC(c1c(C2CC2)sc2cncn12)C1CC2CCCC2C1` (centres unmarked) [Example 133, (2-Cyclopropyl-imidazo[5,1-b]thiazol-3-yl)-(octahydro-pentalen-2-yl)-methanol], the IC50 in experiment [1] came out at 7.07 nM; in experiment [2], 259 nM.

For `OC(CC1CCCCC1)c1c(C2CC(F)(F)C2)sc2cncn12` (racemic) [Example 155, rac-2-Cyclohexyl-1-[2-(3,3-difluoro-cyclobutyl)-imidazo[5,1-b]thiazol-3-yl]-ethanol], the values for the IC50 in experiment [1] and in experiment [2] were 485 nM and 1910 nM, respectively.

For the compound `O[C@@H](CC1CCCCC1)c1c(Cl)sc2cncn12` [Example 16a, (S)-1-(2-Chloro-imidazo[5,1-b]thiazol-3-yl)-2-cyclohexyl-ethanol], the IC50 in experiment [1] amounted to 35.6 nM; in experiment [2], 658 nM.
